Test results published in US20080207522A1, “Antimicrobial Peptides” (priority 2004, published 2008).

Key:
[1] = system: Pseudomonas aeruginosa strain H1001; assay: Assay for the cleaved (free, soluble) peptides from cellulose support, luminescence killing assay; type: cell-based; set-up: key: 1: Peptides showing stronger killing than Bac2A at a 4 to 8-fold higher dilution; Peptides showing stronger killing compared to that of Bac2A at a 4-fold higher dilution; 3: Peptides similar to Bac2A; 4: Peptides similar to Bac2A at the highest concentration but demonstrating weaker killing at a 2-fold dilution; 5: Peptides giving very weak or no killing at a 2-fold dilution; 6: Peptides with weak killing activity at the highest concentration; details: free (cleaved) peptides, killing relative to Bac2A
Protocol: Assay for the cleaved peptides from cellulose support. The peptides were cleaved from the dried membrane in an ammonia atmosphere overnight, resulting in free peptides with an amidated C-terminus. The free peptides contained two β-alanines at the C-terminus, in addition to being amidated due to the linker between the cellulose membrane and the peptide sequence. The peptide spots were punched out and transferred in a 96-well microtiter plate. Serial dilutions were carried out from the membrane spots. Four rows were filled with four controls including two with Bac2A and two with of an unrelated peptide. The other eight rows were used for serial dilution steps of the peptide variants. An overnight culture of Pseudomonas aeruginosa strain H1001 was diluted 1:500 using either LB media or 100 mM Tris buffer pH 7.3, 20 mM glucose and was added to the wells (100 μl/well) containing the peptide spots. In all other wells 50 μl were added. The microtiter plate was incubated for 30 min at 37° C. to release the peptides from the membrane. Subsequently, a dilution series were performed and the plate was incubated at 37° C. The luminescence produced by the ATP dependent luciferase system were detected in a time dependent manner using a Tecan Spectra Fluor plus.
(§1) Strains. For the killing assay a mini-Tn5-lux mutant in Pseudomonas aeruginosa H103 was used. The strain is called H1001 and contains a fliC::luxCDABE transcriptional fusion resulting in constitutive expression of luciferase. The bacterial strains used for the antimicrobial activity assays included Escherichia coli UB1005 (F-, nalA37, metB1), a wild-type Salmonella enterica ssp. Typhimurium (S. Typhimurium), wild-type Pseudomonas aeruginosa PAO1 strain H103, Enterococcus faecalis ATCC29212, Staphylococcus aureus ATCC25923, and a clinical isolate of Staphylococcus epidermidis obtained from Dr. D. Speert (Department of Medicine, University of British Columbia). Antifungal activity was tested using a lab isolate of Candida albicans obtained from Dr. B. Dill (Department of Microbiology and Immunology, University of British Columbia).
Peptide synthesis on cellulose is a very effective and inexpensive way to investigate many different peptide variants for one particular activity. However, one of the problems of this technique is the low peptide density synthesized on the membrane, about 280 nmol per cm2. An average peptide spot used for the experiments presented is about 0.3 cm2. Therefore, an assay had to be developed that was sensitive enough to show activity with this amount of peptides. P. aeruginosa H1001 has a reporter system (e.g., a luciferase gene cassette) incorporated into the bacterial chromosome in the fliC gene (involved in flagellar biosynthesis) that is constitutively expressed. It will thus produce light if ATP is present. When this strain is killed, e.g. by peptides, the amount of light produced will decrease due to a decrease in ATP levels in the killed cells. This action can thus be monitored by detecting luminescence in a microtiter plate luminescence reader over time. The volume and amount of cells per well were optimized for this assay. After screening, the killing action was monitored with small amounts of the parent peptide Bac2A (2 μg/ml of free peptide).
Forty-nine scrambled peptides (Bac002-Bac050) were synthesized on the cellulose support and then cleaved by ammonia gas resulting in free peptides with an amidated C-terminus including the linker. The peptide spots were transferred to a 96-well microtiter plate and incubated for 30 min to dissociate the peptides from the cellulose. After serial dilution and addition of strain H1001, luminescence was recorded in a time dependent manner (FIG. 1). All 50 scrambled peptides were compared to Bac2A ([…]-NH2; SEQ ID NO: 1) by this assay (see Table 2). […] Further since all scrambled peptides had some activity, a sequence-specific interaction of the peptides with a receptor or target could be excluded.

[2] = system: Pseudomonas aeruginosa strain H1001 fliC::luxCDABE; assay: Luminescence-based assay for the non-cleaved (bound) peptides on cellulose membranes; type: cell-based; details: for Luminescence at the given time in minutes: 0 / Luminescence at the given time in minutes: 20 / Luminescence at the given time in minutes: 40 / Luminescence at the given time in minutes: 60 / Luminescence at the given time in minutes: 80 / Luminescence at the given time in minutes: 100 / Luminescence at the given time in minutes: 120 / Luminescence at the given time in minutes: 180 / Luminescence at the given time in minutes: 240: cellulose-bound peptide; for Luminescence at the given time in minutes: 0: 0 min; for Luminescence at the given time in minutes: 20: 20 min; for Luminescence at the given time in minutes: 40: 40 min; for Luminescence at the given time in minutes: 60: 60 min; for Luminescence at the given time in minutes: 80: 80 min; for Luminescence at the given time in minutes: 100: 100 min; for Luminescence at the given time in minutes: 120: 120 min; for Luminescence at the given time in minutes: 180: 180 min; for Luminescence at the given time in minutes: 240: 240 min; for Activity Class bound: uncleaved cellulose-bound peptides
Protocol: Luminescence-based MIC assay for the non-cleaved peptides on cellulose membranes. The peptide spots were punched out and transferred to a 96 well microtiter plate with a clear polystyrene bottom and opaque white polypropylene sides (PerkinElmer, Boston, USA). The spots were washed two times with 100% ethanol for 5 min and afterwards equilibrated five times with 100 mM Tris buffer pH 7.3 for 5 min. An overnight culture of Pseudomonas aeruginosa strain H1001 fliC::luxCDABE was diluted 1:50 in new MH medium and incubated at 37° C. to an OD600 of 0.35. This bacterial culture was diluted 1:25 into 10 mM Tris-HCl buffer, pH 7.3 containing 20 mM glucose. Fifty μl of this culture was added to all wells of the microtiter plate and incubated at 37° C. The luminescence of the strain produced by the ATP-dependent luciferase system was detected in a time dependent manner using a Tecan Spectra Fluor plus (Tecan, Austria). At the end of the experiment, the membranes were cleaned by washing the spots two times with 100% ethanol for five minutes. After removing the ethanol the membrane was air-dried.
as §1
The same set of peptides, as well as the reversed sequence of Bac2A-R ([…]; SEQ ID NO: 2166), were synthesized on cellulose and left uncleaved. The production of light was initially compared in wells containing spots of Bac2A, Bac2A-R (with the reversed sequence of Bac2A), the unrelated negative-control peptide, or, as additional controls, only cellulose, or only bacteria (FIG. 2).
As a control, the negative control (unrelated) peptide Bac429 and parent peptide Bac2A (=Bac001) were used in several different wells of the microtiter plate. Luminescence (relative light units; RLU) was measured at 14 different time points, 9 of which are shown. To permit comparison of the data with the free peptide data set, the result for each peptide was classified into six different groups, like the data set with the free peptides (Table 2). […] For the soluble peptides the following classes were established: […]

Row | Sequence | Activity Class Soluble [1] | Luminescence at the given time in minutes: 0 [2] [RLU] | Luminescence at the given time in minutes: 20 [2] [RLU] | Luminescence at the given time in minutes: 40 [2] [RLU] | Luminescence at the given time in minutes: 60 [2] [RLU] | Luminescence at the given time in minutes: 80 [2] [RLU] | Luminescence at the given time in minutes: 100 [2] [RLU] | Luminescence at the given time in minutes: 120 [2] [RLU] | Luminescence at the given time in minutes: 180 [2] [RLU] | Luminescence at the given time in minutes: 240 [2] [RLU] | Activity Class bound [2]
1 | IVRVAVALRRIR [Bac005] | 3 | 3853 | 6844 | 5163 | 4287 | 3443 | 2254 | 1891 | 1665 | 1791 | 5 (Peptides reducing luminescence (lux) values to between 1500 to 3000 after 240 min.)
2 | RLRVAIVAIVRR [Bac041] | 4 | 4620 | 5674 | 615 | 54 | 68 | 37 | 77 | 53 | 37 | 2 (Peptides reducing lux values to between 500 and 1000 after 40 min.)
3 | RRVIAIAVRRLV [Bac050] | 3 | 4803 | 6715 | 5157 | 4430 | 3915 | 3428 | 3246 | 3206 | 3590 | 6 (Peptides having residual luminescence (lux) values greater than 3000 after 240 min.)
4 | RAIRVRRIVLAV [Bac037] | 4 | 4908 | 6480 | 4105 | 1624 | 366 | 120 | 54 | 59 | 46 | 3 (Peptides similar to Bac2A resulting in lux values of less than 500 after 240 min.)
5 | IARRIVAVRLRV [Bac026] | 3 | 4873 | 6389 | 4439 | 2341 | 1080 | 518 | 302 | 201 | 208 | 3 (Peptides similar to Bac2A resulting in lux values of less than 500 after 240 min.)
6 | VIALRIAVRRVR [Bac045] | 3 | 4873 | 6105 | 2726 | 554 | 83 | 61 | 37 | 57 | 35 | 3 (Peptides similar to Bac2A resulting in lux values of less than 500 after 240 min.)
7 | VLIRIRRVARAV [Bac008] | 2 | 3718 | 6695 | 5154 | 4426 | 3671 | 3164 | 2786 | 2703 | 2890 | 5 (Peptides reducing luminescence (lux) values to between 1500 to 3000 after 240 min.)
8 | RARRVRVLIAIV [Bac036] | 4 | 5208 | 7062 | 5114 | 3233 | 1182 | 394 | 215 | 129 | 107 | 3 (Peptides similar to Bac2A resulting in lux values of less than 500 after 240 min.)
